Laboratory results: patent US11034650B2, “Compounds useful for treating a Mannheimia haemolytica or Histophilus somni infection” (Intervet Inc., priority 2016, dated 2021)
≈ marks a conversion by molar mass, not a printed value.

Legend:
Format in all cases: cell-based
[1] = test system: Pasteurella multocida PM 6391 (ATCC 43137, reference strain); test: MIC, broth-microdilution (CLSI VET01-A4), strain PM 6391; conditions: Pasteurella multocida strain PM 6391, broth-microdilution; unit assumed
Description: For example, representative compounds were tested against ***, Mannheimia haemolytica and Pasteurella multocida, using the conventional broth-dilution assay.
The Minimum inhibitory concentrations (MIC) of compounds according to the invention for a number of veterinary bacterial pathogens were determined by the broth-microdilution method according to CLSI document VET01-A4.
Microdilution trays containing a doubling dilution series of the test compound were used for the tests. The MIC results were interpreted according to the CLSI documents VET01-S3. The lowest concentration of compound at which no visible growth (i.e. no turbidity) detected by the unaided eye was recorded as the MIC.

[2] = test system: Mannheimia haemolytica MH 13065 (XB0446-6003.9, BRD field isolate); test: MIC, broth-microdilution (CLSI VET01-A4), strain MH 13065; conditions: Mannheimia haemolytica strain MH 13065, broth-microdilution; unit assumed
Outline: (§1)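 MIC recorded as the lowest drug level giving no growth visible to the naked eye, from two-fold serial dilutions. Interpretation followed VET01-S3.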

[3] = test system: Mannheimia haemolytica MH 10720 (154, BRD field isolate); test: MIC, broth-microdilution (CLSI VET01-A4), strain MH 10720; conditions: Mannheimia haemolytica strain MH 10720, broth-microdilution; unit assumed
Outline: as §1

[4] = test system: Mannheimia haemolytica MH 6357 (M7/2, reference strain, cattle infection strain); test: MIC, broth-microdilution (CLSI VET01-A4), strain MH 6357; conditions: Mannheimia haemolytica strain MH 6357, broth-microdilution; unit assumed
Outline: as §1

[5] = test system: Mannheimia haemolytica MH 12587 (1071, BRD field isolate, macrolide-resistance: erm+, E+); test: MIC, broth-microdilution (CLSI VET01-A4), strain MH 12587; conditions: Mannheimia haemolytica strain MH 12587, broth-microdilution; unit assumed
Outline: as §1

[6] = test system: Mannheimia haemolytica MH 13093 (XB0472-6014.1, BRD field isolate); test: MIC, broth-microdilution (CLSI VET01-A4), strain MH 13093; conditions: Mannheimia haemolytica strain MH 13093, broth-microdilution; unit assumed
Outline: as §1

[7] = test system: Pasteurella multocida PM 6267 (P 2225 (L386), reference strain, mouse infection strain); test: MIC, broth-microdilution (CLSI VET01-A4), strain PM 6267; conditions: Pasteurella multocida strain PM 6267, broth-microdilution; unit assumed
Outline: as §1

[8] = test system: Mannheimia haemolytica MH 6374 (ATCC 33396, reference strain); test: MIC, broth-microdilution (CLSI VET01-A4), strain MH 6374; conditions: Mannheimia haemolytica strain MH 6374, broth-microdilution; unit assumed
Outline: as §1

[9] = test system: Pasteurella multocida PM 12080 (IV102277-0093, BRD field isolate); test: MIC, broth-microdilution (CLSI VET01-A4), strain PM 12080; conditions: Pasteurella multocida strain PM 12080, broth-microdilution; unit assumed
Outline: as §1

[10] = test system: Pasteurella multocida PM 10775 (080130003051, BRD field isolate); test: MIC, broth-microdilution (CLSI VET01-A4), strain PM 10775; conditions: Pasteurella multocida strain PM 10775, broth-microdilution; unit assumed
Outline: as §1

| Compound | MIC PM 6391 [1] [µg/mL] | MIC PM 6267 [7] [µg/mL] | MIC PM 12080 [9] [µg/mL] | MIC PM 10775 [10] [µg/mL] | MIC MH 13065 [2] [µg/mL] | MIC MH 10720 [3] [µg/mL] | MIC MH 6357 [4] [µg/mL] | MIC MH 12587 [5] [µg/mL] | MIC MH 13093 [6] [µg/mL] | MIC MH 6374 [8] [µg/mL] |
| --- | --- | --- | --- | --- | --- | --- | --- | --- | --- | --- |
| Cc1ccc(CNCc2ccc(C#Cc3ccc(C(=O)N[C@@H](CO)C(=O)NO)cc3)cc2)cc1 [Compound 161] | 0.8 (≈ 1.75 µM) | 0.2 (≈ 0.437 µM) | 0.2 (≈ 0.437 µM) | ≤ 0.1 | 3.1 (≈ 6.78 µM) | 0.8 (≈ 1.75 µM) | 1.6 (≈ 3.5 µM) | 6.3 (≈ 13.8 µM) | 6.3 (≈ 13.8 µM) | 1.6 (≈ 3.5 µM) |
| CSC(C)(C)C(NC(=O)c1ccc(C#Cc2ccc(CNCc3ccccc3)s2)cc1)C(=O)NO (stereo not shown) [Compound 304] | 1.6 (≈ 3.15 µM) | 1.6 (≈ 3.15 µM) | 0.4 (≈ 0.788 µM) | ≤ 0.1 | 1.6 (≈ 3.15 µM) | ≤ 0.1 | 0.8 (≈ 1.58 µM) | 1.6 (≈ 3.15 µM) | 3.1 (≈ 6.11 µM) | 1.6 (≈ 3.15 µM) |
| CC(C)(O)[C@H](NC(=O)c1ccc(C#Cc2ccc(CNCc3cccnc3)nc2)cc1)C(=O)NO [Compound 330] | 0.8 (≈ 1.69 µM) | 1.6 (≈ 3.38 µM) | 0.4 (≈ 0.845 µM) | ≤ 0.1 | 1.6 (≈ 3.38 µM) | 0.2 (≈ 0.422 µM) | 0.8 (≈ 1.69 µM) | 3.1 (≈ 6.55 µM) | 1.6 (≈ 3.38 µM) | 0.8 (≈ 1.69 µM) |
| CC(C)([C@H](NC(=O)c1ccc(C#Cc2ccc(CN3CCCC3)cc2)cc1)C(=O)NO)S(C)(=O)=O [Compound 262] | 0.4 (≈ 0.804 µM) | ≤ 0.1 | 0.4 (≈ 0.804 µM) | ≤ 0.1 | 6.3 (≈ 12.7 µM) | 1.6 (≈ 3.22 µM) | 12.5 (≈ 25.1 µM) | 12.5 (≈ 25.1 µM) | 6.3 (≈ 12.7 µM) | 6.3 (≈ 12.7 µM) |
| CC(C)(O)[C@H](NC(=O)c1ccc(C#Cc2ccc(CNCC#N)s2)cc1)C(=O)NO [Compound 358] | 1.6 (≈ 3.75 µM) | 0.8 (≈ 1.88 µM) | 0.8 (≈ 1.88 µM) | 0.2 (≈ 0.469 µM) | 6.3 (≈ 14.8 µM) | 0.8 (≈ 1.88 µM) | 3.1 (≈ 7.27 µM) | 6.3 (≈ 14.8 µM) | 6.3 (≈ 14.8 µM) | 1.6 (≈ 3.75 µM) |
| CC(C)[C@H](NC(=O)c1ccc(C#Cc2ccc(CNCc3ccco3)cc2)cc1)C(=O)NO [Compound 170] | 0.4 (≈ 0.898 µM) | ≤ 0.1 | 0.2 (≈ 0.449 µM) | ≤ 0.1 | 0.4 (≈ 0.898 µM) | ≤ 0.1 | 0.2 (≈ 0.449 µM) | 0.4 (≈ 0.898 µM) | 0.4 (≈ 0.898 µM) | 0.4 (≈ 0.898 µM) |

Further lines, with some results ahead:

| MIC PM 6391 [1] [µg/mL] | MIC PM 6267 [7] [µg/mL] | MIC PM 12080 [9] [µg/mL] | MIC PM 10775 [10] [µg/mL] | Compound | MIC MH 13065 [2] [µg/mL] | MIC MH 10720 [3] [µg/mL] | MIC MH 6357 [4] [µg/mL] | MIC MH 12587 [5] [µg/mL] | MIC MH 13093 [6] [µg/mL] | MIC MH 6374 [8] [µg/mL] |
| --- | --- | --- | --- | --- | --- | --- | --- | --- | --- | --- |
| 1.6 (≈ 3.57 µM) | 0.4 (≈ 0.894 µM) | 0.8 (≈ 1.79 µM) | ≤ 0.1 | CC[C@H](C)[C@H](NC(=O)c1ccc(C#Cc2ccc(CN3CCCCC3)cc2)cc1)C(=O)NO [Compound 187] | 6.3 (≈ 14.1 µM) | 1.6 (≈ 3.57 µM) | 3.1 (≈ 6.93 µM) | 12.5 (≈ 27.9 µM) | 6.3 (≈ 14.1 µM) | 12.5 (≈ 27.9 µM) |
| 0.4 (≈ 0.953 µM) | 0.2 (≈ 0.477 µM) | 0.2 (≈ 0.477 µM) | ≤ 0.1 | CC(C)[C@H](NC(=O)c1ccc(C#Cc2ccc(CN3CCCC3)cc2)cc1)C(=O)NO [Compound 212] | 3.1 (≈ 7.39 µM) | 0.8 (≈ 1.91 µM) | 3.1 (≈ 7.39 µM) | 12.5 (≈ 29.8 µM) | 12.5 (≈ 29.8 µM) | 6.3 (≈ 15 µM) |
| ≤ 0.1 | 1.6 (≈ 3.68 µM) | 0.2 (≈ 0.46 µM) | 0.4 (≈ 0.921 µM) | CON=C(C)[C@H](NC(=O)c1ccc(C#Cc2ccc(CNC3CC3)cc2)cc1)C(=O)NO [Compound 378] | 0.8 (≈ 1.84 µM) | 0.4 (≈ 0.921 µM) | 0.8 (≈ 1.84 µM) | 0.2 (≈ 0.46 µM) | 0.8 (≈ 1.84 µM) | 0.8 (≈ 1.84 µM) |
| 6.3 (≈ 14.8 µM) | 1.6 (≈ 3.76 µM) | 0.8 (≈ 1.88 µM) | ≤ 0.1 | COCCCNCc1ccc(C#Cc2ccc(C(=O)N[C@@H](CO)C(=O)NO)cc2)cc1 [Compound 153] | 12.5 (≈ 29.4 µM) | 6.3 (≈ 14.8 µM) | 12.5 (≈ 29.4 µM) | 25 (≈ 58.8 µM) | 25 (≈ 58.8 µM) | 25 (≈ 58.8 µM) |
